Data reported in patent publication US11304946B2, “2-hetarylpyrimidine-4-carboxamides as aryl hydrocarbon receptor antagonists” (Bayer Aktiengesellschaft, priority 2017, dated 2022).

Target: T1, Human AhR (Homo sapiens, UniProt P35869)
T1 construct: host or cells: U87 glioblastoma cells, stably transfected with DRE-driven firefly luciferase and constitutive renilla reporter constructs
T1 sequence (P35869 11-848): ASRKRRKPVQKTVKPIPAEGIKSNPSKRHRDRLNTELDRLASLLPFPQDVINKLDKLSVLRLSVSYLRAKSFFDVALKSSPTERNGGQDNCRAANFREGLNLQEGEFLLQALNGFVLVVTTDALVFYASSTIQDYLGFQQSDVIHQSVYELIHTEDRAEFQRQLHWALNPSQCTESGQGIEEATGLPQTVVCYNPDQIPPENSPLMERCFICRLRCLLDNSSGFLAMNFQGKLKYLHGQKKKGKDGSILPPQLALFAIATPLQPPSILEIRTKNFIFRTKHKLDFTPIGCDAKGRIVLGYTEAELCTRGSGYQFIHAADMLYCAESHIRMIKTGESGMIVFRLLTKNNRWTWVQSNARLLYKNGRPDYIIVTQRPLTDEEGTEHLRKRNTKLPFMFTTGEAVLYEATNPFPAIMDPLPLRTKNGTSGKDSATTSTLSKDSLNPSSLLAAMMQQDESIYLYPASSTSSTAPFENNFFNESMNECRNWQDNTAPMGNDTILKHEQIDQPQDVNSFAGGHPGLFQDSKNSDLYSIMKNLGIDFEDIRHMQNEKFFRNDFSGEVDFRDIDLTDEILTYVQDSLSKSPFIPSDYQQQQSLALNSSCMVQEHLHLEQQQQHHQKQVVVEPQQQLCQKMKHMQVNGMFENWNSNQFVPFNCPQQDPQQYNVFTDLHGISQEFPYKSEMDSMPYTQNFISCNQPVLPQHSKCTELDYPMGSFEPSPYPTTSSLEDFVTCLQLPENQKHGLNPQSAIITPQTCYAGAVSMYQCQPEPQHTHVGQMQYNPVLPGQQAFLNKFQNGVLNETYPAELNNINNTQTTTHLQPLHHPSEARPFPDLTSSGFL
Experiment: Transactivation assay in human cell line (in vitro assay 1: antagonism)
Format: cell-based
Details: U87 glioblastoma cells, AHR inducible (DRE) firefly luciferase reporter, 150 μM kynurenic acid, 20 hours
Protocol: Transactivation Assay in Human Cell Line (In Vitro Assay 1)
Transactivation assay was carried out in U87 glioblastoma cells (ATCC) endogenously expressing AHR. In addition the cells were stably transfected with an AHR inducible firefly luciferase reporter gene construct that carried AHR-binding sites (DRE) in its promoter and a renilla reporter gene construct with constitutively active promoter. Kynurenic acid is an endogenous AHR activating ligand and was used to prestimulate test cells prior to testing the antagonistic properties of compounds.
In Vitro Assay 1: Antagonism in Human Cell Line
Firefly luciferase and Renilla activity was determined by the DualGlo Luciferase Assay System (Promega, #2920). Renilla activity was used to assess toxic effects of compounds.

IC50 [nM]	Compound
1.58	Cn1cc(-c2nc(C(=O)N[C@H]3CCC[C@H]3O)cc(-c3ccc(OC(F)(F)F)cc3)n2)cn1 (relative stereo) [Example 91, N-[(cis)-2-hydroxycyclopentyl]-2-(1-methyl-1H-pyrazol-4-yl)-6-[4-(trifluoromethoxy)phenyl]pyrimidine-4-carboxamide]
20.6	Cn1cc(-c2nc(C(=O)N[C@@H]3CS(=O)(=O)C[C@@H]3O)cc(-c3ccc(OC(F)(F)F)cc3)n2)cn1 (relative stereo) [Example 98, N-[(cis)-4-hydroxy-1,1-dioxo-1lambda^6-thiolan-3-yl]-2-(1-methyl-1H-pyrazol-4-yl)-6-[4-(trifluoromethoxy)phenyl]pyrimidine-4-carboxamide]
4.57	Cn1cc(-c2nc(C(=O)N[C@H]3CC[C@H]3O)cc(-c3ccc(OC(F)(F)F)cc3)n2)cn1 (relative stereo) [Example 107, N-[(cis)-2-hydroxycyclobutyl]-2-(1-methyl-1H-pyrazol-4-yl)-6-[4-(trifluoromethoxy)phenyl]pyrimidine-4-carboxamide]
307	COc1ccc(-c2nc(C(=O)NCC(C)(C)O)cc(-c3ccc(OC(F)(F)F)cc3)n2)cn1 [Example 14, N-(2-hydroxy-2-methylpropyl)-2-(6-methoxypyridin-3-yl)-6-[4-(trifluoromethoxy)phenyl]pyrimidine-4-carboxamide]
> 20000	CC(C)(O)CNC(=O)c1cc(-c2ccc(OC(F)(F)F)cc2)nc(-c2cnc(C#N)nc2)n1 [Example 23, 2′-cyano-N-(2-hydroxy-2-methylpropyl)-6-[4-(trifluoromethoxy)phenyl][2,5′-bipyrimidine]-4-carboxamide]
3960	CC(C)(O)CNC(=O)c1cc(-c2ccc(OC(F)(F)F)cc2)nc(-c2cnn(C3CC3)c2)n1 [Example 26, 2-(1-cyclopropyl-1H-pyrazol-4-yl)-N-(2-hydroxy-2-methylpropyl)-6-[4-(trifluoromethoxy)phenyl]pyrimidine-4-carboxamide]
438	COc1ccc(-c2nc(C(=O)N[C@@H](C)CO)cc(-c3ccc(OC(F)(F)F)cc3)n2)cn1 [Example 27, N-[(2S)-1-hydroxypropan-2-yl]-2-(6-methoxypyridin-3-yl)-6-[4-(trifluoromethoxy)phenyl]pyrimidine-4-carboxamide]
15.2	Cc1cscc1-c1nc(C(=O)N[C@@H](C)CO)cc(-c2ccc(OC(F)(F)F)cc2)n1 [Example 29, N-[(2S)-1-hydroxypropan-2-yl]-2-(4-methylthiophen-3-yl)-6-[4-(trifluoromethoxy)phenyl]pyrimidine-4-carboxamide]
6.38	C[C@@H](CO)NC(=O)c1cc(-c2ccc(OC(F)(F)F)cc2)nc(-c2cccs2)n1 [Example 30, N-[(2S)-1-hydroxypropan-2-yl]-2-(thiophen-2-yl)-6-[4-(trifluoromethoxy)phenyl]pyrimidine-4-carboxamide]
14.5	C[C@@H](CO)NC(=O)c1cc(-c2ccc(OC(F)(F)F)cc2)nc(-c2ccsc2)n1 [Example 31, N-[(2S)-1-hydroxypropan-2-yl]-2-(thiophen-3-yl)-6-[4-(trifluoromethoxy)phenyl]pyrimidine-4-carboxamide]
9.25	Cc1ccsc1-c1nc(C(=O)N[C@@H](C)CO)cc(-c2ccc(OC(F)(F)F)cc2)n1 [Example 33, N-[(2S)-1-hydroxypropan-2-yl]-2-(3-methylthiophen-2-yl)-6-[4-(trifluoromethoxy)phenyl]pyrimidine-4-carboxamide]
4510	C[C@@H](CO)NC(=O)c1cc(-c2ccc(OC(F)(F)F)cc2)nc(-c2ccc(C#N)nc2)n1 [Example 38, 2-(6-cyanopyridin-3-yl)-N-[(2S)-1-hydroxypropan-2-yl]-6-[4-(trifluoromethoxy)phenyl]pyrimidine-4-carboxamide]
120	Cc1ncc(-c2nc(C(=O)N[C@@H](C)CO)cc(-c3ccc(OC(F)(F)F)cc3)n2)cn1 [Example 42, N-[(2S)-1-hydroxypropan-2-yl]-2′-methyl-6-[4-(trifluoromethoxy)phenyl][2,5′-bipyrimidine]-4-carboxamide]
972	C[C@@H](CO)NC(=O)c1cc(-c2ccc(OC(F)(F)F)cc2)nc(-c2cnn(C3CC3)c2)n1 [Example 44, 2-(1-cyclopropyl-1H-pyrazol-4-yl)-N-[(2S)-1-hydroxypropan-2-yl]-6-[4-(trifluoromethoxy)phenyl]pyrimidine-4-carboxamide]
57.2	Cc1cn[nH]c1-c1nc(C(=O)N[C@@H](C)CO)cc(-c2ccc(OC(F)(F)F)cc2)n1 [Example 45, N-[(2S)-1-hydroxypropan-2-yl]-2-(4-methyl-1H-pyrazol-5-yl)-6-[4-(trifluoromethoxy)phenyl]pyrimidine-4-carboxamide]
431	COc1ccc(-c2nc(C(=O)NCC(C)(C)O)cc(-c3ccc(Cl)cc3)n2)cn1 [Example 46, 6-(4-chlorophenyl)-N-(2-hydroxy-2-methylpropyl)-2-(6-methoxypyridin-3-yl)pyrimidine-4-carboxamide]
5.91	C[C@@H](CO)NC(=O)c1cc(-c2ccc(Cl)cc2)nc(-c2cccs2)n1 [Example 50, 6-(4-chlorophenyl)-N-[(2S)-1-hydroxypropan-2-yl]-2-(thiophen-2-yl)pyrimidine-4-carboxamide]
965	Cc1noc(C)c1-c1nc(C(=O)NCC(C)(C)O)cc(-c2ccc(Cl)cc2)n1 [Example 56, 6-(4-chlorophenyl)-2-(3,5-dimethyl-1,2-oxazol-4-yl)-N-(2-hydroxy-2-methylpropyl)pyrimidine-4-carboxamide]
328	CC(C)(O)CNC(=O)c1cc(-c2ccc(Cl)cc2)nc(-c2cc[nH]n2)n1 [Example 58, 6-(4-chlorophenyl)-N-(2-hydroxy-2-methylpropyl)-2-(1H-pyrazol-3-yl)pyrimidine-4-carboxamide]
6870	CC(C)(O)CNC(=O)c1cc(-c2ccc(Cl)cc2)nc(-c2ccc(C#N)nc2)n1 [Example 59, 6-(4-chlorophenyl)-2-(6-cyanopyridin-3-yl)-N-(2-hydroxy-2-methylpropyl)pyrimidine-4-carboxamide]
355	Cc1n[nH]cc1-c1nc(C(=O)NCC(C)(C)O)cc(-c2ccc(Cl)cc2)n1 [Example 65, 6-(4-chlorophenyl)-N-(2-hydroxy-2-methylpropyl)-2-(3-methyl-1H-pyrazol-4-yl)pyrimidine-4-carboxamide]
50.1	Cc1nn(C)cc1-c1nc(C(=O)NCC(C)(C)O)cc(-c2ccc(Cl)cc2)n1 [Example 66, 6-(4-chlorophenyl)-2-(1,3-dimethyl-1H-pyrazol-4-yl)-N-(2-hydroxy-2-methylpropyl)pyrimidine-4-carboxamide]
12600	CC(C)(O)CNC(=O)c1cc(-c2ccc(Cl)cc2)nc(-c2cnc(Cl)nc2)n1 [Example 67, 2′-chloro-6-(4-chlorophenyl)-N-(2-hydroxy-2-methylpropyl)[2,5′-bipyrimidine]-4-carboxamide]
342	COc1ccc(-c2nc(C(=O)N[C@@H](C)CO)cc(-c3ccc(Cl)cc3)n2)cn1 [Example 69, 6-(4-chlorophenyl)-N-[(2S)-1-hydroxypropan-2-yl]-2-(6-methoxypyridin-3-yl)pyrimidine-4-carboxamide]
1180	CC(C)Cn1cc(-c2nc(C(=O)N[C@@H](C)CO)cc(-c3ccc(Cl)cc3)n2)cn1 [Example 77, 6-(4-chlorophenyl)-N-[(2S)-1-hydroxypropan-2-yl]-2-[1-(2-methylpropyl)-1H-pyrazol-4-yl]pyrimidine-4-carboxamide]
741	C[C@@H](CO)NC(=O)c1cc(-c2ccc(Cl)cc2)nc(-c2ccc(C#N)nc2)n1 [Example 78, 6-(4-chlorophenyl)-2-(6-cyanopyridin-3-yl)-N-[(2S)-1-hydroxypropan-2-yl]pyrimidine-4-carboxamide]
1040	C[C@@H](CO)NC(=O)c1cc(-c2ccc(Cl)cc2)nc(-c2cn[nH]c2)n1 [Example 81, 6-(4-chlorophenyl)-N-[(2S)-1-hydroxypropan-2-yl]-2-(1H-pyrazol-4-yl)pyrimidine-4-carboxamide]
215	Cc1n[nH]cc1-c1nc(C(=O)N[C@@H](C)CO)cc(-c2ccc(Cl)cc2)n1 [Example 82, 6-(4-chlorophenyl)-N-[(2S)-1-hydroxypropan-2-yl]-2-(3-methyl-1H-pyrazol-4-yl)pyrimidine-4-carboxamide]
